Experimental data taken from patent US20250313575A1, “MACROCYCLES AS LRRK2 INHIBITORS, PHARMACEUTICAL COMPOSITIONS, AND USES THEREOF” (Merck Sharp & Dohme LLC, priority 2022, published 2025).

Each compound was assayed against GST-tagged truncated human mutant G2019S LRRK2 (Homo sapiens (Human), UniProt Q5S007, G2019S) (assay: LRRK2 G2019S Km ATP LanthaScreen assay). Conditions: G2019S LRRK2, 134 μM ATP (Km ATP), LRRKtide substrate.
Type: biochemical
Description: Unless otherwise noted, all reactions are magnetically allowed to stir, diethyl ether used in the experiments described below is Fisher ACS certified material stabilized with BHT, and “concentrated” and/or “solvent removed under reduced pressure” means evaporating the solvent from a solution or mixture using a rotary evaporator or vacuum pump. Unless otherwise noted, flash chromatography is carried out on a Teledyne Isco (Lincoln, NE), Analogix (Burlington, WI), or Biotage (Stockholm, SWE) automated chromatography system using a commercially available cartridge as the column. Columns may be purchased from Teledyne Isco, Analogix, Biotage, Varian (Palo Alto, CA), or Supelco (Bellefonte, PA) and are usually filled with silica gel as the stationary phase. Reverse phase prep-HPLC conditions, where used, can be found at the end of each experimental section. Aqueous solutions were concentrated on a Genevac (Ipswich, ENG) or by freeze-drying/lyophilization. Unless otherwise noted, all LRRK2 pIC50 data presented in tables refers to the LRRK2 G2019S Km ATP LanthaScreen™ assay (Life Technologies Corp., Carlsbad, CA) that is described in the Biological Assay section.
The LRRK2 kinase activity reported herein as IC50 values was determined with LanthaScreen™ technology from Life Technologies Corporation (Carlsbad, CA) using GST-tagged truncated human mutant G2019S LRRK2 in the presence of the fluorescein-labeled peptide substrate LRRKtide, also from Life Technologies. The data presented for the […] depending on the specific conditions and reagents used. Assays were performed in the presence of 134 μM ATP (Km ATP). Upon completion, the assay was stopped and phosphorylated substrate detected with a terbium (Tb)-labeled anti-pERM antibody (cat. no. PV4898). The compound dose response was prepared by diluting a 10 mM stock of compound to a maximum concentration of 9.99 μM in 100% dimethylsulfoxide followed by custom fold serial dilution in dimethylsulfoxide nine times. Twenty nanoliters of each dilution was spotted via a Labcyte Echo onto a 384-well black-sided plate (Corning 3575) followed by 15 μl of a 1.25 nM enzyme solution in 1× assay buffer (50 mM Tris pH 8.5, 10 mM MgCl2, 0.01% Brij-35, 1 mM EGTA, 2 mM dithiothreitol, 0.05 mM sodium orthovanadate). Following a 15-minute incubation at room temperature, the kinase reaction was started with the addition of 5 μl of 400 nM fluorescein-labeled LRRKtide peptide substrate and 134 μM ATP solution in 1× assay buffer. The reaction was allowed to progress at ambient temperature for 90 minutes. The reaction was then stopped by the addition of 20 μl of TR-FRET Dilution Buffer (Life Technologies, Carlsbad, CA) containing 2 nM Tb-labeled anti-phospho LRRKtide antibody and 10 mM EDTA (Life Technologies, Carlsbad, CA). After an incubation of 1 h at room temperature, the plate was read on an EnVision multimode plate reader (Perkin Elmer, Waltham, MA) with an excitation wavelength of 337 nm (Laser) and a reading emission at both 520 and 495 nm. Compound IC50s were interpolated from nonlinear regression best fits of the log of the final compound concentration, plotted as a function of the 520/495-nm emission ratio using Activity base. Abase uses a 4 parameter (4P) logistic fit based on the Levenberg-Marquardt algorithm.

Chain of GST-tagged truncated human mutant G2019S LRRK2 (Q5S007 970-2527 G2019S): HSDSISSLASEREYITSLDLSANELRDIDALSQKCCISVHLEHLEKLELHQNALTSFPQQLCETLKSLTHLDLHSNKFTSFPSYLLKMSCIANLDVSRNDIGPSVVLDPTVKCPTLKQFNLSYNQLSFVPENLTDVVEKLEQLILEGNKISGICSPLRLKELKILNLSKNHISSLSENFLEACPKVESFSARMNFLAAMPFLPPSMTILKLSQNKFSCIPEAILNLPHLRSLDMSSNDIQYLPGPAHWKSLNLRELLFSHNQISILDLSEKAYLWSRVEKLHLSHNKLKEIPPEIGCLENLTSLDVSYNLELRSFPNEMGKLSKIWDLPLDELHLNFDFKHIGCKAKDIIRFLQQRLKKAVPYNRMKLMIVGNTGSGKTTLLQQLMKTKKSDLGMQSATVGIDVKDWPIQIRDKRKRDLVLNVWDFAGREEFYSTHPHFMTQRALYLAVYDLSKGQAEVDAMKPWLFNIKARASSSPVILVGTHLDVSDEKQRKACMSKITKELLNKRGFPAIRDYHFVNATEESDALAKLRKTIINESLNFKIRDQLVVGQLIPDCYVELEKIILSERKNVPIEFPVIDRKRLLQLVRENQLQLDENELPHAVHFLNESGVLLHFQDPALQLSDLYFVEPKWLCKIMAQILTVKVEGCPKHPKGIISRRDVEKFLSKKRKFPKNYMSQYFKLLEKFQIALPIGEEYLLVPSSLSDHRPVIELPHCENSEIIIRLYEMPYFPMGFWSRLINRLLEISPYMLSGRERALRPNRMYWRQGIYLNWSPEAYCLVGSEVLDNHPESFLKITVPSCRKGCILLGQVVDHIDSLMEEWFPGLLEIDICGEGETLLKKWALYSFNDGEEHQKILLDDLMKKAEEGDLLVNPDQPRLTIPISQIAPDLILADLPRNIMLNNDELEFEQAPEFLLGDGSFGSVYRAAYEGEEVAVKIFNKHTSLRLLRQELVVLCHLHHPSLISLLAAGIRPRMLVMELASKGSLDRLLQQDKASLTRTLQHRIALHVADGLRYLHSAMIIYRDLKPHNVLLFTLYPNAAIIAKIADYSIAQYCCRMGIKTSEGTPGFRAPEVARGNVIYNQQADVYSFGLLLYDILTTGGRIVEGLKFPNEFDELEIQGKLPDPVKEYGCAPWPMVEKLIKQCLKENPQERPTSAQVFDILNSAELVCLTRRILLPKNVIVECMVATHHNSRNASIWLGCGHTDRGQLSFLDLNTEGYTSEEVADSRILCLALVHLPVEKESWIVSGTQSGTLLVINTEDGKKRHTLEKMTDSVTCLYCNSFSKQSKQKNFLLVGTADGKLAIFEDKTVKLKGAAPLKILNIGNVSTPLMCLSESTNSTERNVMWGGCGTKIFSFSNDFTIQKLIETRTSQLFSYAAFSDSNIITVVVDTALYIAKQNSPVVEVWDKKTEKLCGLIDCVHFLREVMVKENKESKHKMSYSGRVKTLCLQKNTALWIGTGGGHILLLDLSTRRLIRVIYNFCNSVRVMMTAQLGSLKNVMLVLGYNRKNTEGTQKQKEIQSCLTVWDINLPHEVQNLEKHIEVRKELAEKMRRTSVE

SMILES | LRRK2 pIC50
Cc1nn(C)c2c1OCC1CC[C@H]1Nc1nc(ncc1C(F)(F)F)N2 (stereo partly drawn) [Ex-2.11, (10aR,12aS)- or (10aS,12aR)-1,3-dimethyl-8-(trifluoromethyl)-3,4,10,10a,11,12,12a,13-octahydro-5,9-(azeno)cyclobuta[k]pyrazolo[4,3-b][1]oxa[4,6,10]triazacyclotridecine] | >10.09
Cn1nc(C(F)(F)F)c2c1Nc1cc(c(Cl)cn1)N[C@@H]1COC[C@H]1CO2 [Ex-13.9, (10aS,13aS)-8-chloro-3-methyl-1-(trifluoromethyl)-3,4,10a,11,13a,14-hexahydro-10H,13H-5,9-(metheno)furo[3,4-k]pyrazolo[4,3-b][1]oxa[4,6,10]triazacyclotridecine] | 8.49
CCn1nc(C(F)(F)F)c2c1OC[C@@H]1COC[C@H]1Nc1nc(ncc1Cl)N2 [Ex-1.20, (10aS,13aS)-8-chloro-1-ethyl-3-(trifluoromethyl)-1,4,10a,11,13a,14-hexahydro-10H,13H-5,9-(azeno)furo[3,4-k]pyrazolo[3,4-b][1]oxa[4,6,10]triazacyclotridecine] | 9.42
Cc1nn(C(C)C)c2c1OCCC(C)Nc1nc(ncc1C(F)(F)F)N2 (single isomer, unassigned) [Ex-2.9, (R)- or (S)-1-isopropyl-3,7-dimethyl-10-(trifluoromethyl)-1,5,6,7,8,14-hexahydro-9,13-(azeno)pyrazolo[4,3-b][1]oxa[4,6,10]triazacyclotridecine] | 6.31
CCn1nc(C)c2c1OCC1(CC1)CNc1nc(ncc1C(F)(F)F)N2 [Ex-1.3, 1′-ethyl-3′-methyl-8′-(trifluoromethyl)-1′,4′,10′,11′-tetrahydro-13′H-spiro[cyclopropane-1,12′-[5,9](azeno)pyrazolo[3,4-b][1]oxa[4,6,10]triazacyclotridecine]] | 9.07
Cc1ccc2c(n1)OC[C@@H]1COC[C@H]1Nc1nc(ncc1C(F)(F)F)N2 [Ex-15.7, (11aS,14aS)-2-methyl-9-(trifluoromethyl)-11a,12,14a,15-tetrahydro-5H,11H,14H6,10-(azeno)furo[3,4-k]pyrido[2,3-b][1]oxa[4,6,10]triazacyclotridecine] | 10.01
Cc1nn(C2CCC2)c2c1OCCC(C)Nc1nc(ncc1C(F)(F)F)N2 (single isomer, unassigned) [Ex-2.6, (R)- or (S)-1-cyclobutyl-3,7-dimethyl-10-(trifluoromethyl)-1,5,6,7,8,14-hexahydro-9,13-(azeno)pyrazolo[4,3-b][1]oxa[4,6,10]triazacyclotridecine] | 9.17
COC1CCC1n1nc(C)c2c1Nc1ncc(C(F)(F)F)c(n1)NC1COCC1CO2 [Ex-2.40, (10aS,13aS)-3-((1R,2R)-(10aS,13aS)-3-((1S,2R)-(10aS,13aS)-3-((1R,2S)-(10aS,13aS)-3-((1R,2R)-(10aR,13aR)-3-((1S,2R)-(10aR,13aR)-3-((1R,2S)-2-methoxycyclobutyl)-1-methyl-8-(trifluoromethyl)-3,4,10a,11,13a,14-hexahydro-10H,13H-5,9-(azeno)furo[3,4-k]pyrazolo[4,3-b][1]oxa[4,6,10]triazacyclotridecine] | 8.96
Cc1c2c(nn1C1CC1)Nc1ncc(C(F)(F)F)c(n1)N[C@H](C)CCO2 (single isomer, unassigned) [Ex-17.2, (R)- or (S)-2-cyclopropyl-3,7-dimethyl-10-(trifluoromethyl)-2,5,6,7,8,14-hexahydro-9,13-(azeno)pyrazolo[4,3-b][1]oxa[4,6,10]triazacyclotridecine] | 8.24
FC(F)(F)c1cnc2nc1NC1CCC1COc1c(C3CCOC3)nn(C3CCC3)c1N2 [Ex-2.62, (10aR,12aR)-3-cyclobutyl-1-((R)-(10aR,12aR)-3-cyclobutyl-1-((S)-(10aS,12aS)-3-cyclobutyl-1-((R)-(10aS,12aS)-3-cyclobutyl-1-((S)-tetrahydrofuran-3-yl)-8-(trifluoromethyl)-3,4,10,10a,11,12,12a,13-octahydro-5,9-(azeno)cyclobuta[k]pyrazolo[4,3-b][1]oxa[4,6,10]triazacyclotridecine] | 6.88
CCOC(=O)[C@@H]1C[C@@H]1c1nn(C(C)C)c2c1OC[C@@H]1COC[C@H]1Nc1nc(ncc1C(F)(F)F)N2 [Ex-2.47, ethyl (1R,2S)- or ethyl (1S,2R)-2-((10aS,13aS)-3-isopropyl-8-(trifluoromethyl)-3,4,10a,11,13a,14-hexahydro-10H,13H-5,9-(azeno)furo[3,4-k]pyrazolo[4,3-b][1]oxa[4,6,10]triazacyclotridecin-1-yl)cyclopropane-1-carboxylate] | >10.09
Cc1nn(C2CCC2)c2c1OC[C@@H]1COC[C@H]1Nc1nc(ncc1C(F)(F)F)N2 [Ex-2.28, (3aR,15aR)- or (3aS,15aS)-11-cyclobutyl-13-methyl-6-(trifluoromethyl)-2,3,3a,4,10,11,15,15a-octahydro-5,9-(azeno)furo[3,2-k]pyrazolo[4,3-b][1]oxa[4,6,10]triazacyclotridecine] | 9.64
CC(C)c1nn(C(C)(C)CO)c2c1Nc1ncc(C(F)(F)F)c(n1)N[C@@H]1COC[C@H]1CO2 [Ex-7.5, 2-((10aS,13aS)-3-isopropyl-8-(trifluoromethyl)-10a,11,13a,14-tetrahydro-10H,13H-5,9-(azeno)furo[3,4-k]pyrazolo[3,4-b][1]oxa[4,6,10]triazacyclotridecin-1(4H)-yl)-2-methylpropan-1-ol] | >10.09
CCOC(=O)[C@@H]1C[C@@H]1c1nn(C(C)C)c2c1OC[C@@H]1COC[C@H]1Nc1nc(ncc1C(F)(F)F)N2 [Ex-2.46, ethyl (1R,2S)- or ethyl (1S,2R)-2-((10aS,13aS)-3-isopropyl-8-(trifluoromethyl)-3,4,10a,11,13a,14-hexahydro-10H,13H-5,9-(azeno)furo[3,4-k]pyrazolo[4,3-b][1]oxa[4,6,10]triazacyclotridecin-1-yl)cyclopropane-1-carboxylate] | 6.66
COc1cccc2c1Nc1ncc(Cl)c(n1)N[C@@H]1COC[C@H]1CO2 [Ex-15.2, (3aS,16aS)-6-chloro-11-methoxy-3a,4,16,16a-tetrahydro-1H,3H,10H-5,9-(azeno)benzo[b]furo[3,4-k][1]oxa[4,6,10]triazacyclotridecine] | 9.65
Cc1nn(C)c2c1OCC1(CC1)C(C)Nc1nc(ncc1C(F)(F)F)N2 (single isomer, unassigned) [Ex-2.14, (R)- or (S)-1′,3′,7′-trimethyl-10′-(trifluoromethyl)-1′,7′,8',14′-tetrahydro-5′H-spiro[cyclopropane-1,6′-[9,13](azeno)pyrazolo[4,3-b][1]oxa[4,6,10]triazacyclotridecine]] | 6.73
O[C@@H]1CC[C@H]1n1nc(C2CC2)c2c1OC[C@@H]1COC[C@H]1Nc1nc(ncc1C(F)(F)F)N2 (single isomer, unassigned) [Ex-6.9, (1R,2R)- or (1S,2S)-2-((10aS,13aS)-3-cyclopropyl-8-(trifluoromethyl)-10a,11,13a, 14-tetrahydro-10H,13H-5,9-(azeno)furo[3,4-k]pyrazolo[3,4-b][1]oxa[4,6,10]triazacyclotridecin-1(4H)-yl)cyclobutan-1-ol] | >10.09
CC(C)c1nn(C2CCOC2)c2c1Nc1ncc(C(F)(F)F)c(n1)N[C@@H]1CC[C@H]1CO2 (stereo partly drawn) [Ex-1.18, (10aR,12aR)-3-isopropyl-1-((R)- or (10aR,12aR)-3-isopropyl-1-((S)-tetrahydrofuran-3-yl)-8-(trifluoromethyl)-1,4,10,10a,11,12,12a,13-octahydro-5,9-(azeno)cyclobuta[k]pyrazolo[3,4-b][1]oxa[4,6,10]triazacyclotridecine] | >10.09
